# Data: patent EP0769956B1, “USE OF A GnRH ANTAGONIST FOR THE PREPARATION OF A MEDICAMENT FOR THE TREATMENT OF GONADAL-STEROID CONDITIONS” (THE MEDICAL COLLEGE OF HAMPTON ROADS, priority 1994, dated 2000)
# “And” between values parts separate entries of the source, which are not always exact repeats. Identical values can stand only once.
# Key:
# [1] = in vivo; design: species or system cynomolgus monkeys; settings: cynomolgus monkey, sc
# Description: Eleven adult female cynomolgus monkeys having regular and presumably ovulatory menstrual cycles were entered into the study. Body weights were determined monthly. Menstrual bleeding and spotting were recorded daily by visual inspection of external genitalia and insertion of vaginal swabs using a saline moistened cotton-tipped applicator, respectively. Blood samples were collected from femoral vessels and the serum stored for subsequent RIA of estradiol and progesterone. Coefficients of variation for these assays were: 7.4 and 11.1; and 7.0 and 10.9%, respectively, for within and between assays. The GnRH antagonist ([…]) used was Nal-Glu: [[…]. The design was progressive in that all eleven monkeys initially received […] at 0.05 mg/kg starting on day 2 of the menstrual cycle and continuing daily until results of the progesterone challenge test and estradiol levels in circulation indicated the need to raise the dose. Concurrently, a pair of progesterone-loaded silastic implants were inserted sc during […] treatment from day 20 and 30, and then removed. If withdrawal menses occurred during the next week, the individual Nal-Glu dose was raised to 0.1 mg/kg daily. On […] treatment day 50, the 10 day progesterone challenge test was repeated for all monkeys. […] Again, amenorrhea or withdrawal menses was recorded. […]
# [2] = test system: pituitary-ovarian axis; settings: sufficient single dose; monkeys; cited from earlier work
# [3] = test system: ovarian estrogen secretion; assay: Part I dose-finding study: RIA of serum estradiol during 14 days of daily im treatment; type: in vivo, cynomolgus monkeys; settings: 0.1 mg/kg im daily; some individual primates, predominately
# Description: (§1) Eleven adult female cynomolgus monkeys having regular and presumably ovulatory menstrual cycles were entered into the study. Body weights were determined monthly. Menstrual bleeding and spotting were recorded daily by visual inspection of external genitalia and insertion of vaginal swabs using a saline moistened cotton-tipped applicator, respectively. Blood samples were collected from femoral vessels and the serum stored for subsequent RIA of estradiol and progesterone. Coefficients of variation for these assays were: 7.4 and 11.1; and 7.0 and 10.9%, respectively, for within and between assays. The GnRH antagonist (GnRHant) used was Nal-Glu: [Ac-D2NAL, 4ClDPhe^2, D3Pal^3, Arg^5, DGlu^6(AA), DAla^10]-GnRH.
# In Part I of the study, the object was to perform a brief dose-finding study that indicated residual serum estradiol levels in intact primates previously illustrating regular menstrual cycles. Specifically sought was an approximation of the minimal daily im dose of Nal-Glu sufficient to suppress circulating estradiol levels into the target range: less than 45 pg/ml but more than 35 pg/ml. Beginning on day 2 of the menstrual cycle, Nal-Glu GnRHant, suspended in sesame oil, was administered between 9 and 10 am in doses of 0.1 (n = 5) and 0.3 mg/kg (n = 6) for 14 days. Femoral blood was obtained daily under ketamine anesthesia. […]
# [4] = test system: estrogen-induced endometrial proliferation; assay: Progesterone challenge test (withdrawal bleeding versus amenorrhea, spotting); type: in vivo, cynomolgus monkeys
# Description: as §1
# (§2) After a 60 day wash-out interval, the Part II experimental design had two objectives: 1) attempt to titer the GnRHant dose to individual monkeys so that residual ovarian estrogen secretion was often within the target range (estradiol at 35 to 45 pg/ml) in as many of the blood samples as possible; and 2) perform periodic progesterone challenge tests wherein withdrawal bleeding indicates significant estrogen-induced endometrial proliferation (i.e. excessive estrogenic influence) versus amenorrhea (the absence of progesterone withdrawal bleeding) as an indicator that the GnRHant dose and, in turn, the tonic ovarian estrogen production was indicative of a controlled estrogenic milieu.
# (§3) The design was progressive in that all eleven monkeys initially received Nal-Glu GnRHant at 0.05 mg/kg starting on day 2 of the menstrual cycle and continuing daily until results of the progesterone challenge test and estradiol levels in circulation indicated the need to raise the dose. Concurrently, a pair of progesterone-loaded silastic implants were inserted sc during GnRHant treatment from day 20 and 30, and then removed. If withdrawal menses occurred during the next week, the individual Nal-Glu dose was raised to 0.1 mg/kg daily. On GnRHant treatment day 50, the 10 day progesterone challenge test was repeated for all monkeys. Those primates who were amenorrheic remained on this dose of Nal-Glu; any "bleeders" were to be shifted to a higher dose of GnRHant at 0.2 mg/kg daily through treatment day 90, with the final progesterone challenge test given to all monkeys on days 80 to 90. Again, amenorrhea or withdrawal menses was recorded.
# For definition, withdrawal bleeding was scored when blood was on the external genitalia for two or more consecutive days within the week following progesterone withdrawal. Spotting was scored when blood was evident only by coloration of the cotton swab upon insertion into the vagina.
# [5] = test system: ovarian estrogen secretion; assay: Part II individualized dose titering: RIA of serum estradiol every 10 days; type: in vivo, cynomolgus monkeys
# Description: as §1, §2, §3
# Femoral blood samples were collected every 10 days through the study for RIA of estradiol and progesterone.
compound,measurement,setting,value
CC(=O)[C@H]1CC[C@H]2[C@@H]3CCC4=CC(=O)CC[C@]4(C)[C@H]3CC[C@]12C [progesterone],concentration at 240 h,[1],6.4 ± 0.6 ng/mL
D-Ac-D-2-Nal^1-DpClPhe^2-D-3-Pal^3-Ser^4-NiLys^5-D-NicLys^6-Leu^7-ILys^8-Pro^9-D-Ala^10 [antide],effect on the pituitary-ovarian axis,[2],immediate and sustained inhibition of the pituitary-ovarian axis
"[Ac-D2NAL, 4ClDPhe^2, D3Pal^3, Arg^5, DGlu^6(AA), DAla^10]-GnRH [Nal-Glu]",serum estradiols,[3],< 25 pg/mL
same,monkeys achieving withdrawal amenorrhea,"[4]; second progesterone challenge test, only the monkeys raised to 0.1 mg/kg im daily",8 of 9
same,Incidence of Spotting,[4]; week of progesterone withdrawal days 31-37,13 days
same,Amenorrhea Achieved,"[4]; week of progesterone withdrawal days 31-37, first challenge, all eleven monkeys on 0.05 mg/kg im daily",two and 2/11
same,Incidence of Spotting,[4]; week of progesterone withdrawal days 61-67,12 days
same,Amenorrhea Achieved,"[4]; week of progesterone withdrawal days 61-67, second challenge, 0.05 or 0.1 mg/kg im daily",10/11
same,Incidence of Spotting,[4]; week of progesterone withdrawal days 91-97,0 days
same,Amenorrhea Achieved,"[4]; week of progesterone withdrawal days 91-97, third challenge, 0.05, 0.1 or 0.2 mg/kg im daily",eleven and 11/11
same,mean serum estradiol levels,"[5]; 0.05 mg/kg im daily, the two primates with withdrawal amenorrhea, target zone 35 to 45 pg/ml",in or near the target zone
same,estradiol suppression,"[5]; 0.2 mg/kg im daily, the lone resistant monkey",under 20 pg/ml
same,mean circulating estradiol levels,"[5]; at third progesterone challenge test, all females except the one given 0.2 mg/kg im daily, target zone 35 to 45 pg/ml",in or near the target zone
same,mean serum estradiol concentrations,"[5]; dose raised to 0.1 mg/kg im daily from day 31, 8 monkeys",approximately 40 pg/ml
